{"source": "patent US20080096909A1", "about": "“APOMORPHINE INHIBITORS OF AMYLOID-BETA (ABETA) FIBRIL FORMATION AND THEIR USE IN AMYLOIDOSIS BASED DISEASE” (priority 2001, published 2008)", "key": {"monomeric Aβ": {"molecular_target": "T1, monomeric Aβ (Homo sapiens, UniProt P05067)", "T1 construct": "Amyloid-β (Aβ 1-40) was purchased from California Peptides (Lot # SF104); purchased California Peptides Lot # SF104", "T1 sequence (P05067 672-711)": "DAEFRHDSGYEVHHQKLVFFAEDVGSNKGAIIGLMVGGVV", "assay": "Sedimentation equilibrium of unsedimented monomeric species, monitored at 330 nm", "format": "binding", "protocol": "Sedimentation equilibrium runs were performed on AD (100 μM) samples in the absence and presence of inhibitors (150 μL) at pH 7.4 at a rotor speed of 3,000-20,000 rpm using a double sector cell with charcoal-filled epon centerpieces and sapphire windows. All scans were performed at 280 nm or at 330 nm (for solutions containing apomorphine or apomorphine analogues) with a step size of 0.001 cm and 25 averaged scans. Samples were allowed to equilibrate for 24-30 h, and duplicate scans 3 h apart were overlaid to determine that equilibrium had been reached. The data were analyzed by a nonlinear least squares analysis using the Origin software provided by Beckman.\nAnalytical ultracentrifugation methods were also employed to probe the mechanism of interaction of these molecules with Aβ. […] To investigate whether apomorphine binds to monomeric Aβ, we carried out a sedimentation equilibrium experiment on the remaining monomeric species by monitoring at 330 nm, where apomorphine is the sole contributor to the absorbance at this wavelength."}, "Aβ 1-40 [1]": {"molecular_target": "T2, Aβ 1-40 (Homo sapiens, UniProt P05067)", "T2 sequence (P05067 672-711)": "as above", "assay": "Thioflavin T (ThT) fluorescence assay for fibril formation", "format": "biochemical", "set-up": "Amyloid-β (Aβ 1-40) was purchased from California Peptides (Lot # SF104); purchased California Peptides Lot # SF104", "method": "Preparation of Stock Peptide Solutions for Fibrillization Studies. Stock solutions of the inhibitors were prepared by dissolving the compounds at a concentration of 5-7 mM in water or in 1-1.5% DMSO solutions (for compounds with reduced solubility). Amyloid-β (Aβ 1-40) was purchased from California Peptides (Lot # SF104). Aβ 1-40 stock solutions were prepared by dissolving purified and lyophilized peptide in cold double distilled water to yield stock solutions at a concentration of 2 mg/mL. The stock solutions were used within 10-30 minutes of dissolution. Samples for fibril formation assay were prepared by diluting the appropriate amount of Aβ stock with pH 7.4 Tris-HCl buffer (50 mM Tris, 150 mM NaCl) to afford a final peptide concentration of 100 μM. […] Analytical ultracentrifugation, and electron microscopy were periodically used to ensure that we start our experiments with a hydrodynamically defined Aβ monomer, and the absence of any preformed fibrils in solution.\nThioflavin T (ThT) Fluorescence Assay for Fibril Formation. Thioflavin T was purchased from Aldrich (70% purity) and was recrystallized from benzene/ethanol (1:1) to afford yellow crystals (36). Thioflavin T binding assays were performed by addition of 50 μL of 100 μM Aβ solutions, which were incubated at 37° C. in the absence and presence of inhibitors, to 450 μL solution of 10 μM Thioflavin T in phosphate buffer (10 mM phosphate, 100 mM KCl). The solutions were mixed and fluorescence measurements were recorded in Biosystems model spectrofluorimeter at 25° C. using a 1 cm path length quartz cell. An excitation slit width of 4 nm and an emission slit width of 8 nm were employed. The excitation wavelength was set to 450 nm and emission monitored from 460-630 nm. The relative fluorescence at 482 nm was plotted for each sample, and was used as a measure of the amount of fibrillar aggregates in solution."}, "Aβ 1-40 [2]": {"molecular_target": "T2, Aβ 1-40", "assay": "Sedimentation velocity of Aβ quaternary structures in the presence of inhibitors", "format": "biochemical", "set-up": "Amyloid-β (Aβ 1-40) was purchased from California Peptides (Lot # SF104); purchased California Peptides Lot # SF104", "details": "for Average sedimentation coefficients of two populations of oligomeric species: apomorphine 50 μM", "method": "Probing the Mechanism of Amyloid Fibril Formation Inhibition using Sedimentation Velocity Experiments. To probe the mechanism by which apomorphine and its structural analogues inhibit Aβ fibril formation, sedimentation velocity was used to determine the distribution and molecular size of quaternary structures of Aβ in the presence and absence of inhibitors. Aβ samples (100 μM) in a pH 7.4 buffer (50 mM Tris-HCl, 150 mM NaCl) were incubated at 37° C. for 1-10 days in the presence and absence of inhibitors, then transferred to 25° C. for 1-3 hours before the sedimentation experiments were carried out at 20° C. The sedimentation properties of Aβ 1-40 in the absence and presence of inhibitors were obtained from data collected on a temperature controlled Beckman XL-1 using 400-420 μL of peptide solutions and data were recorded at rotor speeds of 3,000-30,000 rpm in continuous mode with a step size of 0.005 cm. The sedimentation velocity absorbance profiles were then analyzed using the time derivative (dc/dt) analysis program, which was provided by J. Philo, to obtain the sedimentation coefficient distribution g(*s) for all the quaternary structures in solution as described previously (37, 38).\nFitting of the g(*s) profiles allows for the determination of the sedimentation coefficient (peak position, with a unit of Svedberg, 1 S=10^−13 s) and the diffusion coefficient (from the peak width, with a unit of Fick, 1 F=[…]). This method has the advantage of allowing for the calculation of the molecular weight of the sedimenting species using equation II since s and D can be obtained from the fitting analysis. [formula]\nIn the cases where the diffusion coefficient cannot be determined accurately, the molecular weight of a spherical protein can still be estimated by combining the Svedberg equation and Stokes equation for the frictional coefficient to obtain equation III which utilizes the estimated sedimentation coefficient: [formula]\nSedimentation velocity was also used to determine the amount of soluble Aβ and Aβ monomer in solution after sedimentation of Aβ aggregates. […] The percent of monomeric species in solution was calculated using equation IV at 50,000 rpm and after complete sedimentation of Aβ high MW oligomeric species. Sedimentation equilibrium studies of the unsedimented species were carried out to determine whether a monomer, dimer or a mixture was present in solution. % of unsedimented Aβ=1−(Absorbance(290 nm, 3000 rpm)−Absorbance(290 nm, 20,000-30,000 rpm))×100 (IV)"}, "Aβ 1-40 [3]": {"molecular_target": "T2, Aβ 1-40", "assay": "Visible sedimentable aggregates in Aβ 1-40 fibrillization samples", "set-up": "Amyloid-β (Aβ 1-40) was purchased from California Peptides (Lot # SF104); purchased California Peptides Lot # SF104", "details": "Aβ 1-40 100 μM, apomorphine 100 μM, 37° C., 1-3 days", "protocol": "Solutions of Aβ 1-40 (50-100 μM) were incubated at 37° C. for 1-3 days in the absence and presence of apomorphine at equimolar concentration."}, "Aβ 1-40 [4]": {"molecular_target": "T2, Aβ 1-40", "assay": "Congo red binding studies", "format": "biochemical", "set-up": "Amyloid-β (Aβ 1-40) was purchased from California Peptides (Lot # SF104); purchased California Peptides Lot # SF104", "details": "Aβ solutions containing apomorphine, 3 days at 37° C.", "protocol": "Congo Red Binding Studies. […] The concentration of the Congo red stock was determined by measuring the absorbance of a diluted aliquot at 477 nm (ε477 nm=34,722 cm^−1M^−1) (35). Buffered Congo red solutions at the desired concentration were prepared by dilution of an aliquot of the stock solution in 50 mM Tris-HCl, 150 mM NaCl (pH 7.4). Binding studies were carried out by diluting 10 μL of a 100 μM Aβ solutions to 90 μL of 10 μM Congo red buffered solution. The resulting solutions were then vortexed and the UV-Vis spectra (300-700 nm) was collected immediately using a Beckman UV/VIS spectrophotometer in a mini cuvette with a 1 cm pathlength."}, "Aβ 1-40 [5]": {"molecular_target": "T2, Aβ 1-40", "assay": "Electron microscopy of Aβ aggregates in the presence of inhibitor", "format": "biochemical", "set-up": "Amyloid-β (Aβ 1-40) was purchased from California Peptides (Lot # SF104); purchased California Peptides Lot # SF104", "method": "Electron Microscopy. Electron microscopy was used to follow the changes in size and structural morphology of Aβ aggregates in the presence and absence of inhibitor at 37° C. as a function of time. EM samples were prepared by placing 5 μL of the Aβ solution on a carbon-coated grid and allowing the solution to stand for 2 min before removing excess solution. The grid was then washed once with distilled water and once with 1% uranyl acetate before staining the sample with fresh 1% uranyl acetate for another 2 min. The samples were then studied in a Phillips CM-100 electron microscope. The grids were thoroughly examined to get an overall statistical evaluation of the structures present in the sample. All electron micrographs were taken at 100 kV."}}, "note": "Values joined by “and” are separate entries in the source; they are usually repeats but may differ in a detail not shown here. Equal values may be shown once. “Also recorded” adds a separate entry of the source."}
{"smiles": "CN1CCc2cccc3c2C1Cc1ccc(O)c(O)c1-3", "note": "(single isomer, unassigned; (-)) [apomorphine, (−)-10,11-dihydroxyaporphine]", "values": [{"measurement": "Molecular weight from single species fit of sedimentation equilibrium", "setting": "monomeric Aβ; remaining monomeric species, monitored at 330 nm", "result": "4,430 g/mol"}, {"measurement": "Binding to monomeric Aβ", "setting": "monomeric Aβ; sedimentation equilibrium at 330 nm", "result": "bound to monomeric Aβ"}, {"measurement": "Thioflavin T fluorescence at 482 nm (amount of fibrils)", "setting": "Aβ 1-40 [1]; Aβ 1-40 100 μM incubated with compound, pH 7.4, 37° C., 3 days", "result": "did not exhibit this typical fluorescence; also recorded: did not affect the ThT fluorescence spectra; also recorded: signal near background"}, {"measurement": "Thioflavin T signal after longer incubation", "setting": "Aβ 1-40 [1]; longer incubation at 37° C., some long fibrils formed", "result": "did not exhibit any changes"}, {"measurement": "Thioflavin T signal with sodium metabisulphite added", "setting": "Aβ 1-40 [1]; stock solutions containing 1% (v/v) sodium metabisulphite, 37° C., pH 7.4, 3 days", "result": "restoration of the ThT signal"}, {"measurement": "Amount of nonfibrillar assemblies (protofibrils) formed by Aβ alone relative to that obtained in the presence of compound", "setting": "Aβ 1-40 [2]; 20 hour incubation", "result": "~30", "unit": "%"}, {"measurement": "Average sedimentation coefficients of two populations of oligomeric species", "setting": "Aβ 1-40 [2]; Aβ 100 μM", "result": "35 S and 56 S"}, {"measurement": "Average sedimentation coefficients of two populations of oligomeric species", "setting": "Aβ 1-40 [2]; Aβ 100 μM, listed as apomorhine", "result": "35 S and 56 S"}, {"measurement": "Average sedimentation coefficient of Aβ-apomorphine complex(s)", "setting": "Aβ 1-40 [2]; Aβ 100 μM, apomorphine 100 μM, 3 days, 30,000 rpm", "result": 50, "unit": "S"}, {"measurement": "Sedimentation of Aβ 1-40 at 3,000 rpm (fibrils)", "setting": "Aβ 1-40 [2]; apomorphine at equimolar ratio to Aβ 1-40", "result": "no sedimentation of Aβ 1-40 was observed"}, {"measurement": "Increase in amount of soluble protofibrils", "setting": "Aβ 1-40 [2]; incubation 17-24 h at 37° C., in the presence of apomorphine", "result": 60, "unit": "%"}, {"measurement": "Sedimentation coefficient after addition of apomorphine", "setting": "Aβ 1-40 [2]; incubation 17-24 h at 37° C., Aβ alone 20 S", "result": 30, "unit": "S"}, {"measurement": "Visible sedimentable aggregates", "setting": "Aβ 1-40 [3]", "result": "did not show any visible sedimentable aggregates"}, {"measurement": "Congo red maximal absorbance and red-shifted maximum", "setting": "Aβ 1-40 [4]", "result": "no increase in the maximal absorbance and red-shifted maximum"}, {"measurement": "Species seen by electron microscopy", "setting": "Aβ 1-40 [5]; Aβ 1-40 100 μM, apomorphine 50 μM", "result": "both long unbranched fibrils and short nonfibrillar assemblies were observed"}, {"measurement": "Nonfibrillar assemblies as share of species in solution", "setting": "Aβ 1-40 [5]; Aβ 1-40 100 μM, apomorphine 50 μM, 3-6 days at 37° C.", "result": "70-85%"}, {"measurement": "Species seen by electron microscopy", "setting": "Aβ 1-40 [5]; Aβ 1-40 100 μM, apomorphine 100 μM", "result": "accumulation of predominantly soluble, nonfibrillar assemblies"}, {"measurement": "Species by sedimentation velocity and EM", "setting": "Aβ 1-40 [5]; Aβ 1-40 100 μM, apomorphine 200 μM, 37° C., 2-6 days", "result": "stabilization of soluble oligomeric species"}, {"measurement": "Fibril formation at apomorphine concentrations below 50 μM", "setting": "Aβ 1-40 [5]; Aβ 1-40 100 μM, apomorphine <50 μM, 3-9 days at 37° C.", "result": "significant fibrils were formed; also recorded: not effective as an inhibitor"}, {"measurement": "Protofibril assembly into fibrils when compound is added to pre-incubated Aβ (EM and sedimentation velocity)", "setting": "Aβ 1-40 [5]; Aβ pre-incubated 18-20 hr at 37° C., then three to nine days with compound", "result": "exhibited similar behavior"}, {"measurement": "Inhibition of Aβ fibril formation by EM, aged or freshly prepared stock solutions", "setting": "Aβ 1-40 [5]; three to four days at 37° C.", "result": "effective inhibition of Aβ fibril formation"}]}
